# Reference: US20150087723A1, “MICROBIAL COMPOSITION” (Rohm and Haas Company, priority 2011, published 2015)
# What was measured:
# [1] = test system: Escherichia coli (E. coli—ATCC #10536); assay: Automated assessment of efficacy in model surfactant base (2.85% sodium cocoyl glycinate + 1.85% sodium lauroamphoacetate, pH 10), 15 seconds exposure, OD450/OD590 readout; type: cell-based; conditions: for No. of replicates showing growth (out of 4) / Δ OD 450 nm = OD450 (time = 16 hours) - OD450 (time zero), Mean / Δ OD 590 nm OD590 (time = 16 hours) - OD590 (time zero), Mean: model surfactant solution; for MBC: Escherichia coli, ATCC10536, 15 s, in 2.85% sodium cocoyl glycinate + 1.85% sodium lauroamphoacetate solution at pH 10, E. coli, read-out: MBC (% w/v); for Phenol MBC %(w/v): phenol alone, model surfactant, E. Coli
# Experimental: Solutions were prepared such that the concentrations of the surfactant components and test actives were 1.1×x the final desired concentration in order to allow for dilution with the bacterial inoculum in the test. The solutions were manually adjusted to pH 10.0 by drop wise addition of sodium hydroxide solution, as measured with a phi meter at ambient temperature.
# Tests were conducted using standard microtiter plate assays using an automated liquid handling system, 270 μl of the surfactant test solution was pipetted into each well of the microtitre plate and 30 μl of the bacterial suspension was then added. After exactly 15 seconds of bacterial exposure, a 30 μl volume of bacterial cells was withdrawn and transferred to 270 μl of D/E quench solution. After 5 minutes in the D/E quench, the optical density (OD) was measured for each plate in turn at two specific wavelengths (450 nm and 590 nm). These provide a dual check of antimicrobial activity, as the OD450 reading is specific for the yellow colour of D/E quench when bacterial growth is observed, whereas OD590 is specific for the initial purple colour of the D/E quench which is retained if no bacterial growth is observed. After the time zero OD measurements, plates were then incubated at 37° C. overnight (16 hours) before repeating the OD measurements. Delta OD values were calculated by subtracting […] the initial value at time zero. Bacterial growth is observed as an increase in OD450 and a decrease in ΔOD590. To identify antibacterially efficacious systems (those preventing appreciable bacterial growth after incubation), the following threshold changes in OD readings have been adopted: if (1), OD450 increases by less than 0.2 absorbance unit on incubation and (2). OD590 decreases by less than 0.35 unit on incubation. Conversely, where OD450 increases by more than 0.2 AU and OD590 decreases by more than 0.35 unit after incubation, corresponding to a colour shift from purple to yellow, the test system allows bacterial growth and is not deemed efficacious. Four replicate measurements in the same plate have been made for each test system. The number of replicate wells showing either bacterial growth or no growth is also readily assessed by eye by following the colour change.
# Dose responses for individual components and binary mixtures of actives at a used concentration ratio were generated by sequential dilution of liquors with further surfactant solution to obtain a series of endpoints.
# In some selected cases, the combinations were also tested at the weight ratio 1:1.
# [2] = test system: Escherichia coli (E. coli—ATCC #10536); assay: Synergy test: high resolution MBC microtiter plate assay, phosphate buffer containing 35% dipropylene glycol, 15 seconds contact; type: cell-based; conditions: E. coli 10536; for SI (Synergy Index = Qa/QA + Qb/QB): at Qa and Qb, <1 synergy, 1 additivity, >1 antagonism; for Qa: MBC of the first component (A) acting alone (QA): component alone (Qb = 0), complete kill in 15 seconds
# Description: One measure of synergy is -the industrially accepted method described by Kull, F. C.; Eisman, P. C.; Sylwestrowicz, H. D. and Mayer, R. L., in Applied Microbiology 9:538-541 (1961), using the ratio determined by the formula:
# Qa/QA+Qb/QB=Synergy Index (“SI”)
# wherein: QA=concentration of compound A (first component) in percent, acting alone, which produced an end point (MBC of Compound A). Qa =concentration of compound A in percent, in the mixture, which produced an end point. QB=concentration of compound B (second component) in percent, acting alone, which produced an end point (MBC of Compound B). Qb=concentration of compound B in percent, in the mixture, which produced an end point.
# When the sum of Qa/QA and Qb/QB is greater than one, antagonism is indicated. […] The lower the SI, the greater is the synergy shown by that particular mixture. The minimum biocidal concentration (MBC) of a microbicide is the lowest concentration tested under a specific set of conditions that provides complete kill of the tested microorganisms.
# Synergy tests were-conducted using standard microtiter plate assays with, phosphate buffer containing 35% dipropylene glycol (DPG). In this method, a wide range of combinations of chemicals was tested by conducting high resolution MBC assays of Component (A) in the presence of various concentrations of Component (B). High resolution MBCs were determined by adding varying amounts of microbicide to one column of a microtiter plate and doing subsequent ten-fold dilutions using an automated liquid handling system to obtain a series of closely spaced endpoints. The MBC plate was inoculated one column at a time with the test microorganism. An aliquot of the inoculated well was transferred at 15 seconds to a plate containing a neutralizing agent (D/E Neutralizing Broth), mixed and held for 5 minutes before being transferred to a growth plate containing trypticase soy broth (TSB). The TSB plate was incubated at 37° C. and read for the presence/absence of growth at 24 hours. The lowest level tested that provided complete kill (as evidenced by no growth in the microtitre plate) of the test organisms in 15 seconds is the minimum biocidal concentration (MBC).
# The synergy of the combinations of the present invention was determined against a bacterium, Escherichia coli (E. coli—ATCC #10536), at a concentration of approximately 1×10^8 bacteria per mL. This microorganism is representative of natural contaminants in many consumer and industrial applications.
SMILES,No. of replicates showing growth (out of 4) ([1]; component alone at 0.05% w/v),"Δ OD 450 nm = OD450 (time = 16 hours) - OD450 (time zero), Mean ([1]; component alone at 0.05% w/v)","Δ OD 590 nm OD590 (time = 16 hours) - OD590 (time zero), Mean ([1]; component alone at 0.05% w/v)",SI (Synergy Index = Qa/QA + Qb/QB) [2],Qa: MBC of the first component (A) acting alone (QA) [2],MBC [1],No. of replicates showing growth (out of 4) ([1]; component alone at 0.2% w/v),"Δ OD 450 nm = OD450 (time = 16 hours) - OD450 (time zero), Mean ([1]; component alone at 0.2% w/v)","Δ OD 590 nm OD590 (time = 16 hours) - OD590 (time zero), Mean ([1]; component alone at 0.2% w/v)",No. of replicates showing growth (out of 4) ([1]; component alone at 0.125% w/v),"Δ OD 450 nm = OD450 (time = 16 hours) - OD450 (time zero), Mean ([1]; component alone at 0.125% w/v)","Δ OD 590 nm OD590 (time = 16 hours) - OD590 (time zero), Mean ([1]; component alone at 0.125% w/v)",No. of replicates showing growth (out of 4) ([1]; component alone at […] w/v),"Δ OD 450 nm = OD450 (time = 16 hours) - OD450 (time zero), Mean ([1]; component alone at […] w/v)","Δ OD 590 nm OD590 (time = 16 hours) - OD590 (time zero), Mean ([1]; component alone at […] w/v)",further results
CCCc1ccccc1O [2-propyphenol],4 out of 4,−1.43,0.46,–,–,–,–,–,–,–,–,–,–,–,–,–
CCC(C)c1ccccc1O (centres unmarked) [2-sec-butylphenol],4 out of 4,−1.50,0.30,1.00,0.2 weight %,1750 µg/mL,0 out of 4,−0.01,0.09,–,–,–,–,–,–,Phenol MBC %(w/v) [1]: 0.175 %(w/v)
Cc1ccc(C(C)(C)C)c(O)c1 [2-tert-butyl-5-methylphenol],4 out of 4,−1.50,0.29,–,–,2000 µg/mL,–,–,–,4 out of 4,−1.45,0.32,4 out of 4,−1.47,0.28,"No. of replicates showing growth (out of 4) ([1]; component alone at 0.175% w/v): 4 out of 4; Δ OD 450 nm = OD450 (time = 16 hours) - OD450 (time zero), Mean ([1]; component alone at 0.175% w/v): −1.30; Δ OD 590 nm OD590 (time = 16 hours) - OD590 (time zero), Mean ([1]; component alone at 0.175% w/v): 0.47"
CC(C)(C)c1ccccc1O [2-tert-butylphenol],4 out of 4,−1.58,0.22,1.00,–,2000 µg/mL,–,–,–,4 out of 4,−1.48,0.30,4 out of 4,−1.50,0.28,"No. of replicates showing growth (out of 4) ([1]; component alone at 0.175% w/v): 4 out of 4; Δ OD 450 nm = OD450 (time = 16 hours) - OD450 (time zero), Mean ([1]; component alone at 0.175% w/v): −1.08; Δ OD 590 nm OD590 (time = 16 hours) - OD590 (time zero), Mean ([1]; component alone at 0.175% w/v): 0.57; Phenol MBC %(w/v) [1]: 0.2 %(w/v)"
Cc1cc(O)cc(C(C)C)c1 [3-isopropyl-5-methylphenol],–,–,–,1.00,–,–,–,–,–,–,–,–,–,–,–,–
CCCc1cccc(O)c1 [3-n-propylphenol],–,–,–,1.00,0.5 weight %,> 2000 µg/mL,4 out of 4,−0.57,0.56,4 out of 4,−0.59,0.57,4 out of 4,–,–,–
CC(C)(C)c1cccc(O)c1 [3-tert-butylphenol],–,–,–,1.00,0.3 weight %,> 2000 µg/mL,4 out of 4,−0.47,0.64,4 out of 4,−0.45,0.65,4 out of 4,−0.43,0.65,–
Cc1cc(O)ccc1C(C)C [4-isopropyl-3-methylphenol],4 out of 4,−1.52,0.25,1.00,–,> 2000 µg/mL,4 out of 4,−1.41,0.36,–,–,–,4 out of 4,−1.53,0.27,"No. of replicates showing growth (out of 4) ([1]; component alone at 0.1% w/v): 4 out of 4; Δ OD 450 nm = OD450 (time = 16 hours) - OD450 (time zero), Mean ([1]; component alone at 0.1% w/v): −1.50; Δ OD 590 nm OD590 (time = 16 hours) - OD590 (time zero), Mean ([1]; component alone at 0.1% w/v): 0.24"
CCCCc1ccc(O)cc1 [4-n-butylphenol],–,–,–,1.00,0.2 weight %,–,–,–,–,–,–,–,–,–,–,–
CCCc1ccc(O)cc1 [4-propylphenol],–,–,–,1.00,–,> 2000 µg/mL,4 out of 4,−1.49,0.43,4 out of 4,−1.56,0.37,4 out of 4,–,–,–
